Here are results for 13 compounds from PubChem BioAssay AID220 (DTP/NCI, 2004).

The assay concerns CD8F1 mice, subcutaneous mammary adenocarcinoma, T/C%. Description: NCI In Vivo Anticancer Drug Screen. Data for tumor model Mammary Adenocarcinoma CD8F1 (subcutaneous) in CD8F1. The following applies: higher = larger tumour. Put shortly:
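Ratio of treated to vehicle-control outcome, based on either survival or tumor size, in mice bearing transplantable tumors given the test compound.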

Where [1] appears, read: endpoint: median tumor weight (est.), dose: 0.5 mg/kg/injection, schedule: Q07DX005 (ip), vehicle: saline.
[2] abbreviates: endpoint: median tumor weight (est.), dose: 6.25 mg/kg/injection, schedule: Q07DX005 (ip), vehicle: Klucel (hydroxypropylcellulose) (HPC).
The mark [3] stands for this setting: endpoint: median tumor weight (est.), dose: 12.5 mg/kg/injection, schedule: Q07DX005 (ip), vehicle: Klucel (hydroxypropylcellulose) (HPC).
[4] abbreviates: endpoint: median tumor weight (est.), dose: 25.0 mg/kg/injection, schedule: Q07DX005 (ip), vehicle: Klucel (hydroxypropylcellulose) (HPC).
Where [5] appears, read: endpoint: median tumor weight (est.), dose: 50.0 mg/kg/injection, schedule: Q07DX005 (ip), vehicle: Klucel (hydroxypropylcellulose) (HPC).
Setting [6] is: endpoint: median tumor weight (est.), dose: 100.0 mg/kg/injection, schedule: Q07DX005 (ip), vehicle: Klucel (hydroxypropylcellulose) (HPC).
Setting [7] is: endpoint: mean tumor weight, dose: 100.0 mg/kg/injection, schedule: Q07DX007 (ip), vehicle: saline.
[8] abbreviates: endpoint: mean tumor weight, dose: 200.0 mg/kg/injection, schedule: Q07DX007 (ip), vehicle: saline.

Each structure is given as a SMILES string. Several values for one entry are separate records, joined by “and”; a condition that tells them apart may be missing. Equal entries are not always repeated. Records with an inconclusive call do not appear.

For `S=P(N1CC1)(N1CC1)N1CC1`, the T/C (endpoint: mean tumor weight, dose: 1.0 mg/kg/injection, schedule: Q01DX009 (ip), vehicle: saline) is 45 % of control; the T/C (endpoint: mean tumor weight, dose: 2.0 mg/kg/injection, schedule: Q01DX009 (ip), vehicle: saline) was 7 % of control; the T/C (endpoint: mean tumor weight, dose: 4.0 mg/kg/injection, schedule: Q07DX005 (ip), vehicle: saline) was 354 % of control; the T/C (endpoint: mean tumor weight, dose: 4.0 mg/kg/injection, schedule: Q07DX006 (ip), vehicle: saline) is 20 % of control; the T/C (endpoint: mean tumor weight, dose: 4.0 mg/kg/injection, schedule: Q07DX007 (ip), vehicle: saline) was 1 % of control; the T/C (endpoint: mean tumor weight, dose: 8.0 mg/kg/injection, schedule: Q07DX005 (ip), vehicle: saline) was 597 % of control. The T/C (endpoint: mean tumor weight, dose: 8.0 mg/kg/injection, schedule: Q07DX006 (ip), vehicle: saline) is 3 % of control; the T/C (endpoint: mean tumor weight, dose: 8.0 mg/kg/injection, schedule: Q07DX007 (ip), vehicle: saline) is 6 % of control; the T/C (endpoint: mean tumor weight, dose: 16.0 mg/kg/injection, schedule: Q07DX005 (ip), vehicle: saline) is 61 % of control; the T/C under setting [1] was 96 % of control; the T/C (endpoint: median tumor weight (est.), dose: 1.0 mg/kg/injection, schedule: Q07DX005 (ip), vehicle: saline) is 157 % of control; the T/C (endpoint: median tumor weight (est.), dose: 2.0 mg/kg/injection, schedule: Q07DX005 (ip), vehicle: saline) is 159 % of control. Also, the T/C is, setting by setting: (endpoint: median tumor weight (est.), dose: 4.0 mg/kg/injection, schedule: Q07DX005 (ip), vehicle: saline) 42 % of control; (endpoint: median tumor weight (est.), dose: 8.0 mg/kg/injection, schedule: Q07DX005 (ip), vehicle: saline) 15 % of control.

Consider `CCCCCCC1C=Cc2ccccc21` (stereo not given), for which the T/C under setting [2] is 65 % of control; the T/C under setting [3] was 61 % of control; the T/C under setting [4] was 84 % of control; the T/C under setting [5] was 86 % of control; the T/C under setting [6] was 66 % of control.

For the compound `COC(=O)CC(N)C(=O)O` (stereo not given), the T/C is, setting by setting: (endpoint: median tumor weight change, dose: 125.0 mg/kg/injection, schedule: Q01DX001 (ip), vehicle: saline) 60 % of control; (endpoint: median tumor weight change, dose: 250.0 mg/kg/injection, schedule: Q01DX001 (ip), vehicle: saline) 61 % of control.

Consider `CCOC1=Cc2c(oc3c(C(C)(C)C)cc(OCC)cc23)OC(C(C)(C)C)=C1`, for which the T/C was 114 % of control (endpoint: median tumor weight change, dose: 15.6 mg/kg/injection, schedule: Q01DX001 (ip), vehicle: saline with Tween-80); 98 % of control (endpoint: median tumor weight change, dose: 15.62 mg/kg/injection, schedule: Q01DX001 (ip), vehicle: saline with Tween-80); 85 % of control and 106 % of control (endpoint: median tumor weight change, dose: 62.5 mg/kg/injection, schedule: Q01DX001 (ip), vehicle: saline with Tween-80).

Turning to `Cc1c2cc[n+](CCN3CCCCC3)cc2c(C)c2c1[nH]c1ccc(O)cc12`, the T/C is, setting by setting: (endpoint: median tumor weight change, dose: 7.81 mg/kg/injection, schedule: Q01DX001 (ip), vehicle: suspension in saline) 83 % of control; (endpoint: median tumor weight change, dose: 15.6 mg/kg/injection, schedule: Q01DX001 (ip), vehicle: suspension in saline) 102 % of control and 116 % of control.

As to `CC[C@]1(O)C[C@H]2CN(CCc3c([nH]c4ccccc34)[C@@](C(=O)OC)(c3cc4c(cc3OC)N(C)[C@H]3[C@@](O)(C(=O)OC)[C@H](OC(C)=O)[C@]5(CC)C=CCN6CC[C@]43[C@@H]65)C2)C1`, the T/C (endpoint: median tumor weight (est.), dose: 0.25 mg/kg/injection, schedule: Q07DX005 (ip), vehicle: saline) is 70 % of control and 71 % of control; the T/C under setting [1] is 63 % of control and 83 % of control and 84 % of control; the T/C (endpoint: median tumor weight change, dose: 1.0 mg/kg/injection, schedule: Q01DX001 (ip), vehicle: saline) is 81 % of control; the T/C (endpoint: median tumor weight change, dose: 2.0 mg/kg/injection, schedule: Q01DX001 (ip), vehicle: saline) is 56 % of control; the T/C (endpoint: median tumor weight change, dose: 4.0 mg/kg/injection, schedule: Q01DX001 (ip), vehicle: saline) was 28 % of control.

`C#CC[N+]12CN3CN(CN(C3)C1)C2`: the T/C (endpoint: mean tumor weight, dose: 12.5 mg/kg/injection, schedule: Q07DX007 (ip), vehicle: saline) is 48 % of control; the T/C (endpoint: mean tumor weight, dose: 25.0 mg/kg/injection, schedule: Q07DX007 (ip), vehicle: saline) is 70 % of control; the T/C (endpoint: mean tumor weight, dose: 50.0 mg/kg/injection, schedule: Q07DX007 (ip), vehicle: saline) was 81 % of control; the T/C under setting [7] is 150 % of control; the T/C under setting [8] is 97 % of control.

Regarding `CC1OC1C(=O)C1(O)C(C)C(O)C23OC2(C(O)c2c(O)cccc2C3=O)C1O` (stereo not given), the T/C was 84 % of control and 100 % of control and 107 % of control (endpoint: median tumor weight change, dose: 10.0 mg/kg/injection, schedule: Q01DX001 (ip), vehicle: Klucel (hydroxypropylcellulose) (HPC)); 66 % of control and 87 % of control (endpoint: median tumor weight change, dose: 40.0 mg/kg/injection, schedule: Q01DX001 (ip), vehicle: Klucel (hydroxypropylcellulose) (HPC)).

As to `Cc1nn(CCO)c(C)c1N=[N+]([O-])c1c(C)nn(CCO)c1C`, the T/C is, setting by setting: under setting [2], 57 % of control; under setting [3], 63 % of control; under setting [4], 91 % of control; under setting [5], 104 % of control; under setting [6], 43 % of control.

In the case of `Nc1nc(N)c2cc(CNc3ccc(C(=O)NC(CC(=O)O)CC(=O)O)cc3)ccc2n1`, the T/C under setting [3] was 86 % of control, the T/C under setting [4] is 92 % of control, the T/C under setting [5] was 81 % of control and the T/C under setting [6] is 54 % of control.

For the compound `CC(CN1CC(=O)NC(=O)C1)N1CC(=O)NC(=O)C1` (stereo not given), the T/C under setting [3] was 59 % of control; the T/C under setting [4] is 84 % of control; the T/C under setting [5] was 41 % of control; the T/C (endpoint: median tumor weight (est.), dose: 200.0 mg/kg/injection, schedule: Q07DX005 (ip), vehicle: Klucel (hydroxypropylcellulose) (HPC)) is 21 % of control and 29 % of control; the T/C (endpoint: median tumor weight (est.), dose: 400.0 mg/kg/injection, schedule: Q07DX005 (ip), vehicle: Klucel (hydroxypropylcellulose) (HPC)) was 5 % of control and 11 % of control.

`O=C1NC2(CCCCC2)C(=O)N1CCN(CCCl)CCCl`: the T/C is, setting by setting: (endpoint: mean tumor weight, dose: 3.0 mg/kg/injection, schedule: Q07DX005 (ip), vehicle: Klucel (hydroxypropylcellulose) (HPC)) 81 % of control; (endpoint: mean tumor weight, dose: 6.0 mg/kg/injection, schedule: Q07DX005 (ip), vehicle: Klucel (hydroxypropylcellulose) (HPC)) 82 % of control; (endpoint: mean tumor weight, dose: 12.0 mg/kg/injection, schedule: Q07DX005 (ip), vehicle: Klucel (hydroxypropylcellulose) (HPC)) 42 % of control; (endpoint: mean tumor weight, dose: 24.0 mg/kg/injection, schedule: Q07DX005 (ip), vehicle: Klucel (hydroxypropylcellulose) (HPC)) 26 % of control; (endpoint: median tumor weight (est.), dose: 3.0 mg/kg/injection, schedule: Q07DX005 (ip), vehicle: saline) 68 % of control; (endpoint: median tumor weight (est.), dose: 6.0 mg/kg/injection, schedule: Q07DX005 (ip), vehicle: saline) 75 % of control. The T/C reads like this: (endpoint: median tumor weight (est.), dose: 12.0 mg/kg/injection, schedule: Q07DX005 (ip), vehicle: saline) 45 % of control; (endpoint: median tumor weight (est.), dose: 24.0 mg/kg/injection, schedule: Q07DX005 (ip), vehicle: saline) 6 % of control; (endpoint: median tumor weight change, dose: 9.0 mg/kg/injection, schedule: Q01DX001 (ip), vehicle: saline with Tween-80) 60 % of control; (endpoint: median tumor weight change, dose: 9.38 mg/kg/injection, schedule: Q01DX001 (ip), vehicle: saline with Tween-80) 75 % of control; (endpoint: median tumor weight change, dose: 18.0 mg/kg/injection, schedule: Q01DX001 (ip), vehicle: saline with Tween-80) 62 % of control; (endpoint: median tumor weight change, dose: 37.0 mg/kg/injection, schedule: Q01DX001 (ip), vehicle: saline with Tween-80) 32 % of control. Moreover, for the setting “endpoint: median tumor weight change, dose: 75.0 mg/kg/injection, schedule: Q01DX001 (ip), vehicle: saline with Tween-80”, the T/C was 19 % of control.

`Cc1cc(O)c(N=Nc2ccc(C(=O)O)cc2)cc1C`: the T/C is, setting by setting: (endpoint: mean tumor weight (est.), dose: 200.0 mg/kg/injection, schedule: Q07DX001 (ip), vehicle: carboxymethylcellulose (CMC)) 82 % of control; (endpoint: mean tumor weight (est.), dose: 400.0 mg/kg/injection, schedule: Q07DX001 (ip), vehicle: carboxymethylcellulose (CMC)) 74 % of control; under setting [7], 106 % of control; under setting [8], 20 % of control; (endpoint: mean tumor weight, dose: 400.0 mg/kg/injection, schedule: Q07DX007 (ip), vehicle: saline) 35 % of control; (endpoint: median tumor weight (est.), dose: 25.0 mg/kg/injection, schedule: Q07DX005 (ip), vehicle: suspension in saline) 98 % of control. The T/C is 90 % of control (endpoint: median tumor weight (est.), dose: 50.0 mg/kg/injection, schedule: Q07DX005 (ip), vehicle: suspension in saline); 98 % of control (endpoint: median tumor weight (est.), dose: 100.0 mg/kg/injection, schedule: Q07DX005 (ip), vehicle: suspension in saline); 108 % of control (endpoint: median tumor weight (est.), dose: 200.0 mg/kg/injection, schedule: Q07DX005 (ip), vehicle: suspension in saline); 98 % of control (endpoint: median tumor weight (est.), dose: 400.0 mg/kg/injection, schedule: Q07DX005 (ip), vehicle: suspension in saline).
